The text below walks through data of patent US12540118B2, “Dendrene amide compound, bactericide and use thereof” (Jiangsu Flag Chemical Industry Co., Ltd., priority 2020, dated 2026).

Bounds are passed on as bounds.

In one assay the test system is Sphaerotheca fuliginea. The assay is described as follows: Sphaerotheca fuliginea potting method. The class given is in vivo. As to conditions: Podosphaera fuliginea; 100 mg/L; read-out: Sphaerotheca fuliginea control rating. The procedure:
The fungicidal activity of the control agents and target compounds are determined. The test and investigation method refers to SOP-SC-1101 sphaerotheca fuliginea potting method in disinfectant rolls written by KANGZHUO and GUBAOGEN in “Standard operation specification for testing biological activity of pesticides”.

Another assay concerns the target T1, succinate dehydrogenase (Sus scrofa, UniProt A5GZW8+D0VWV4+Q007T0).
T1 construct: isolated from porcine hearts; from tissue; host or cells: porcine heart
The assay is described as follows: Enzyme activity assay, succinate dehydrogenase (DCIP reduction). The class given is biochemical, porcine. As to conditions: read-out: Inhibitors (10 μM, SQR). An outline of the steps: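 Porcine heart succinate dehydrogenase (2 nM) in 100 mM sodium phosphate pH 7.4, 0.3 mM EDTA, 20 mM sodium succinate and 53 μM DCIP at 23° C with stirring. DCIP reduction followed at 600 nm (ε 21 mM^−1 cm^−1); linear slope minus baseline gives initial rate.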

For another assay, the system named is Erysiphe graminis. The experiment in a line: Erysiphe graminis potting method. The class given is in vivo. As to conditions: Blumeria graminis; 100 mg/L; read-out: Erysiphe graminis control rating. The procedure: The fungicidal activity of the control agents and target compounds are determined. The test and investigation method refers to SOP-SC-1116 Erysiphe graminis potting method in disinfectant rolls written by KANGZHUO and GUBAOGEN in “Standard operation specification for testing biological activity of pesticides”.

T1 sequence (Q0QF01 43-664 partner): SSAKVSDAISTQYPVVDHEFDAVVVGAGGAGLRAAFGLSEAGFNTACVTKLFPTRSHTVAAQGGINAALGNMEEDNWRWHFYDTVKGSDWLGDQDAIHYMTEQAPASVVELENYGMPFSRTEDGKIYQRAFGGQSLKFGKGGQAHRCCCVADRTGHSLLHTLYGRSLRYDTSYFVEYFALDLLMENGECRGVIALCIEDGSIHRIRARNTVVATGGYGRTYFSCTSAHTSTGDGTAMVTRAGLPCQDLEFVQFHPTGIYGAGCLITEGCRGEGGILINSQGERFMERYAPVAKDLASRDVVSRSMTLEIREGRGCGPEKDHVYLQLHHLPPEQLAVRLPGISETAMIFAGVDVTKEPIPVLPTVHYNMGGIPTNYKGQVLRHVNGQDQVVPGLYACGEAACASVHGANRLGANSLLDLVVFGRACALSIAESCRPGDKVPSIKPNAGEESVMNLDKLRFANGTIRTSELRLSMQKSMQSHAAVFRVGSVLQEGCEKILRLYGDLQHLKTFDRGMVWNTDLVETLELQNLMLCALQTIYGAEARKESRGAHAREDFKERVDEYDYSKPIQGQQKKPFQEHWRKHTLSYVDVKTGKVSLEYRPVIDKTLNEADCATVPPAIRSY
T1 sequence (Q007T0 29-280): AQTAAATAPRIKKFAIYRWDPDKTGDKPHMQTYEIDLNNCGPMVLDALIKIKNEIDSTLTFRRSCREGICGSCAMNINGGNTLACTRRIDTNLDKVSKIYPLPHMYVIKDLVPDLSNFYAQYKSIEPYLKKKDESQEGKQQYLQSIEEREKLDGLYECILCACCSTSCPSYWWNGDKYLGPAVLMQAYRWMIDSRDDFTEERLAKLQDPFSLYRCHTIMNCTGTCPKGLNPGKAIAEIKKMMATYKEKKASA
T1 sequence (D0VWV4 30-169): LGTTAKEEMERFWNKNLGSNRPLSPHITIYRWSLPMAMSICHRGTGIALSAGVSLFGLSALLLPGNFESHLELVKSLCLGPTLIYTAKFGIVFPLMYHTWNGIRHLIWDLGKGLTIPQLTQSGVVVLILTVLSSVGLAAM
T1 sequence (A5GZW8 57-159 limits assumed): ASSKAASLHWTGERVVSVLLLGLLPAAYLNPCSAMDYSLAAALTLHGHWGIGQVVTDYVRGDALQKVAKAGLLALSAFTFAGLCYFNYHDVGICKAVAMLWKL

Take `CC(C(=C(Cl)Cl)c1ccc(Cl)c(Cl)c1)N(C(=O)c1c(C(F)F)nn(C)c1F)C1CC1` (stereo not drawn) [Compound 173]: the pest or weed control at 100 µg/mL with Sphaerotheca fuliginea and in the assay with Erysiphe graminis was 80 to 100% in each case. For the same compound, the inhibition at 10 µM at succinate dehydrogenase is over 90%.

As for `CC(C(=C(Cl)Cl)c1cc(Cl)cc(Cl)c1)N(C(=O)c1c(C(F)F)nn(C)c1F)C1CC1` (stereo not drawn) [Compound 174], the pest or weed control at 100 µg/mL in the assay on Sphaerotheca fuliginea and with Erysiphe graminis was 80 to 100% each time. Further, on succinate dehydrogenase, the inhibition at 10 µM is over 90%.

For the compound `CC(C(=C(Cl)Cl)c1c(Cl)cc(Cl)cc1Cl)N(C(=O)c1c(C(F)F)nn(C)c1F)C1CC1` (stereo not drawn) [Compound 175], the pest or weed control at 100 µg/mL with Sphaerotheca fuliginea and in the assay on Erysiphe graminis was 80 to 100% each time. The inhibition at 10 µM on succinate dehydrogenase is over 90%.

Regarding `CC(C(=C(Cl)Cl)c1ccccc1F)N(C(=O)c1c(C(F)F)nn(C)c1F)C1CC1` (stereo not drawn) [Compound 176], the pest or weed control at 100 µg/mL with Sphaerotheca fuliginea and in the assay with Erysiphe graminis was 80 to 100% in each case. In addition, on succinate dehydrogenase, the inhibition at 10 µM was over 90%.

Take `CC(C(=C(Cl)Cl)c1cccc(F)c1)N(C(=O)c1c(C(F)F)nn(C)c1F)C1CC1` (stereo not drawn) [Compound 177]: the pest or weed control at 100 µg/mL in the assay on Sphaerotheca fuliginea and in the assay with Erysiphe graminis was 80 to 100% throughout. Moreover, the inhibition at 10 µM at succinate dehydrogenase was over 90%.

For the compound `CC(C(=C(Cl)Cl)c1ccc(F)cc1)N(C(=O)c1c(C(F)F)nn(C)c1F)C1CC1` (stereo not drawn) [Compound 178], the pest or weed control at 100 µg/mL with Sphaerotheca fuliginea and in the assay on Erysiphe graminis was 80 to 100% each time. Moreover, the inhibition at 10 µM at succinate dehydrogenase was over 90%.

Turning to `CC(C(=C(Cl)Cl)c1ccc(F)cc1F)N(C(=O)c1c(C(F)F)nn(C)c1F)C1CC1` (stereo not drawn) [Compound 179], the pest or weed control at 100 µg/mL with Sphaerotheca fuliginea and in the assay with Erysiphe graminis was 80 to 100% in each case. For the same compound, the inhibition at 10 µM on succinate dehydrogenase was over 90%.

Regarding `CC(C(=C(Cl)Cl)c1cc(F)ccc1F)N(C(=O)c1c(C(F)F)nn(C)c1F)C1CC1` (stereo not drawn) [Compound 180], the pest or weed control at 100 µg/mL with Sphaerotheca fuliginea and in the assay on Erysiphe graminis was 80 to 100% each time. In addition, on succinate dehydrogenase, the inhibition at 10 µM was over 90%.

For `CC(C(=C(Cl)Cl)c1c(F)cccc1F)N(C(=O)c1c(C(F)F)nn(C)c1F)C1CC1` (stereo not drawn) [Compound 181], the pest or weed control at 100 µg/mL in the assay with Sphaerotheca fuliginea and in the assay on Erysiphe graminis was 80 to 100% throughout. At succinate dehydrogenase, the inhibition at 10 µM was over 90%.

With `CC(C(=C(Cl)Cl)c1c(F)cc(F)cc1F)N(C(=O)c1c(C(F)F)nn(C)c1F)C1CC1` (stereo not drawn) [Compound 182], the pest or weed control at 100 µg/mL in the assay with Sphaerotheca fuliginea and with Erysiphe graminis was 80 to 100% throughout. Moreover, the inhibition at 10 µM at succinate dehydrogenase is over 90%.

Turning to `CC(C(=C(Cl)Cl)c1ccc(F)c(F)c1)N(C(=O)c1c(C(F)F)nn(C)c1F)C1CC1` (stereo not drawn) [Compound 183], the pest or weed control at 100 µg/mL with Sphaerotheca fuliginea and in the assay on Erysiphe graminis was 80 to 100% each time. The inhibition at 10 µM at succinate dehydrogenase was over 90%.

For `CC(C(=C(Cl)Cl)c1ccc(Br)cc1)N(C(=O)c1c(C(F)F)nn(C)c1F)C1CC1` (stereo not drawn) [Compound 184], the pest or weed control at 100 µg/mL in the assay with Sphaerotheca fuliginea and in the assay on Erysiphe graminis was 80 to 100% in each case. In addition, the inhibition at 10 µM at succinate dehydrogenase was over 90%.

Regarding `CC(C(=C(Cl)Cl)c1ccccc1Br)N(C(=O)c1c(C(F)F)nn(C)c1F)C1CC1` (stereo not drawn) [Compound 185], the pest or weed control at 100 µg/mL in the assay with Sphaerotheca fuliginea and in the assay on Erysiphe graminis was 80 to 100% in each case. For the same compound, the inhibition at 10 µM on succinate dehydrogenase is over 90%.

Consider `CC(C(=C(Cl)Cl)c1cccc(Br)c1)N(C(=O)c1c(C(F)F)nn(C)c1F)C1CC1` (stereo not drawn) [Compound 186], for which the pest or weed control at 100 µg/mL in the assay with Sphaerotheca fuliginea and with Erysiphe graminis was 80 to 100% in each case. Also, the inhibition at 10 µM on succinate dehydrogenase is over 90%.

Turning to `CC(C(=C(Cl)Cl)c1ccc(Br)cc1Br)N(C(=O)c1c(C(F)F)nn(C)c1F)C1CC1` (stereo not drawn) [Compound 187], the pest or weed control at 100 µg/mL in the assay on Sphaerotheca fuliginea and in the assay on Erysiphe graminis was 80 to 100% each time. Besides, the inhibition at 10 µM at succinate dehydrogenase was over 90%.

Consider `CC(C(=C(Cl)Cl)c1cc(Br)ccc1Br)N(C(=O)c1c(C(F)F)nn(C)c1F)C1CC1` (stereo not drawn) [Compound 188], for which the pest or weed control at 100 µg/mL in the assay with Sphaerotheca fuliginea and with Erysiphe graminis was 80 to 100% each time. The inhibition at 10 µM at succinate dehydrogenase was over 90%.

In the case of `CC(C(=C(Cl)Cl)c1c(Br)cccc1Br)N(C(=O)c1c(C(F)F)nn(C)c1F)C1CC1` (stereo not drawn) [Compound 189], the pest or weed control at 100 µg/mL in the assay on Sphaerotheca fuliginea and in the assay on Erysiphe graminis was 80 to 100% in each case. Also, the inhibition at 10 µM at succinate dehydrogenase was over 90%.

`CC(C(=C(Cl)Cl)c1c(Br)cc(Br)cc1Br)N(C(=O)c1c(C(F)F)nn(C)c1F)C1CC1` (stereo not drawn) [Compound 190]: the pest or weed control at 100 µg/mL with Sphaerotheca fuliginea and in the assay on Erysiphe graminis was 80 to 100% throughout. On succinate dehydrogenase, the inhibition at 10 µM is over 90%.

`CC(C(=C(Cl)Cl)c1ccc(Br)c(Br)c1)N(C(=O)c1c(C(F)F)nn(C)c1F)C1CC1` (stereo not drawn) [Compound 191]: the pest or weed control at 100 µg/mL in the assay with Sphaerotheca fuliginea and in the assay with Erysiphe graminis was 80 to 100% each time. For the same compound, the inhibition at 10 µM at succinate dehydrogenase was over 90%.

Take `Cc1cccc(C(=C(Cl)Cl)C(C)N(C(=O)c2c(C(F)F)nn(C)c2F)C2CC2)c1` (stereo not drawn) [Compound 192]: the pest or weed control at 100 µg/mL in the assay on Sphaerotheca fuliginea and in the assay with Erysiphe graminis was 80 to 100% each time. On succinate dehydrogenase, the inhibition at 10 µM is over 90%.

For the compound `Cc1ccc(C(=C(Cl)Cl)C(C)N(C(=O)c2c(C(F)F)nn(C)c2F)C2CC2)c(C)c1` (stereo not drawn) [Compound 193], the pest or weed control at 100 µg/mL in the assay with Sphaerotheca fuliginea and in the assay on Erysiphe graminis was 80 to 100% each time. Besides, the inhibition at 10 µM on succinate dehydrogenase was over 90%.

As for `Cc1ccc(C)c(C(=C(Cl)Cl)C(C)N(C(=O)c2c(C(F)F)nn(C)c2F)C2CC2)c1` (stereo not drawn) [Compound 194], the pest or weed control at 100 µg/mL with Sphaerotheca fuliginea and with Erysiphe graminis was 80 to 100% throughout. Further, the inhibition at 10 µM on succinate dehydrogenase was over 90%.

As for `Cc1cccc(C)c1C(=C(Cl)Cl)C(C)N(C(=O)c1c(C(F)F)nn(C)c1F)C1CC1` (stereo not drawn) [Compound 195], the pest or weed control at 100 µg/mL in the assay on Sphaerotheca fuliginea and in the assay with Erysiphe graminis was 80 to 100% each time. For the same compound, the inhibition at 10 µM at succinate dehydrogenase is over 90%.

For the compound `Cc1cc(C)c(C(=C(Cl)Cl)C(C)N(C(=O)c2c(C(F)F)nn(C)c2F)C2CC2)c(C)c1` (stereo not drawn) [Compound 196], the pest or weed control at 100 µg/mL with Sphaerotheca fuliginea and in the assay on Erysiphe graminis was 80 to 100% each time. Further, the inhibition at 10 µM at succinate dehydrogenase was over 90%.

In the case of `Cc1ccc(C(C)C)cc1C(=C(Cl)Cl)C(C)N(C(=O)c1c(C(F)F)nn(C)c1F)C1CC1` (stereo not drawn) [Compound 197], the pest or weed control at 100 µg/mL in the assay with Sphaerotheca fuliginea and in the assay with Erysiphe graminis was 80 to 100% in each case. Further, the inhibition at 10 µM on succinate dehydrogenase was over 90%.

In the case of `Cc1ccc(C(C)C)c(C(=C(Cl)Cl)C(C)N(C(=O)c2c(C(F)F)nn(C)c2F)C2CC2)c1` (stereo not drawn) [Compound 198], the pest or weed control at 100 µg/mL in the assay on Sphaerotheca fuliginea and with Erysiphe graminis was 80 to 100% in each case. Further, the inhibition at 10 µM at succinate dehydrogenase is over 90%.

Turning to `Cc1ccc(C(C)(C)C)c(C(=C(Cl)Cl)C(C)N(C(=O)c2c(C(F)F)nn(C)c2F)C2CC2)c1` (stereo not drawn) [Compound 199], the pest or weed control at 100 µg/mL with Sphaerotheca fuliginea and in the assay with Erysiphe graminis was 80 to 100% throughout. Further, the inhibition at 10 µM at succinate dehydrogenase is over 90%.

Consider `Cc1ccc(C(C)(C)C)cc1C(=C(Cl)Cl)C(C)N(C(=O)c1c(C(F)F)nn(C)c1F)C1CC1` (stereo not drawn) [Compound 200], for which the pest or weed control at 100 µg/mL with Sphaerotheca fuliginea and in the assay with Erysiphe graminis was 80 to 100% throughout. Moreover, the inhibition at 10 µM at succinate dehydrogenase was over 90%.

`Cc1cc(C(C)C)ccc1C(=C(Cl)Cl)C(C)N(C(=O)c1c(C(F)F)nn(C)c1F)C1CC1` (stereo not drawn) [Compound 201]: the pest or weed control at 100 µg/mL in the assay on Sphaerotheca fuliginea and in the assay with Erysiphe graminis was 80 to 100% throughout. The inhibition at 10 µM on succinate dehydrogenase was over 90%.

On to `Cc1ccccc1C(=C(Cl)Cl)C(C)N(C(=O)c1c(C(F)F)nn(C)c1F)C1CC1` (stereo not drawn) [Compound 202], for which the pest or weed control at 100 µg/mL in the assay on Sphaerotheca fuliginea and with Erysiphe graminis was 80 to 100% throughout. The inhibition at 10 µM on succinate dehydrogenase was over 90%.

As for `Cc1ccc(C(=C(Cl)Cl)C(C)N(C(=O)c2c(C(F)F)nn(C)c2F)C2CC2)cc1` (stereo not drawn) [Compound 203], the pest or weed control at 100 µg/mL in the assay on Sphaerotheca fuliginea and with Erysiphe graminis was 80 to 100% throughout. Besides, on succinate dehydrogenase, the inhibition at 10 µM was over 90%.

With `Cc1ccc(C(=C(Cl)Cl)C(C)N(C(=O)c2c(C(F)F)nn(C)c2F)C2CC2)cc1C` (stereo not drawn) [Compound 204], the pest or weed control at 100 µg/mL with Sphaerotheca fuliginea and in the assay with Erysiphe graminis was 80 to 100% throughout. For the same compound, the inhibition at 10 µM at succinate dehydrogenase was over 90%.

For `Cc1cc(C)cc(C(=C(Cl)Cl)C(C)N(C(=O)c2c(C(F)F)nn(C)c2F)C2CC2)c1` (stereo not drawn) [Compound 205], the pest or weed control at 100 µg/mL with Sphaerotheca fuliginea and with Erysiphe graminis was 80 to 100% in each case. In addition, on succinate dehydrogenase, the inhibition at 10 µM was over 90%.

In the case of `CC(C(=C(Cl)Cl)c1ccc(Cl)cc1F)N(C(=O)c1c(C(F)F)nn(C)c1F)C1CC1` (stereo not drawn) [Compound 206], the pest or weed control at 100 µg/mL in the assay with Sphaerotheca fuliginea and in the assay with Erysiphe graminis was 80 to 100% each time. At succinate dehydrogenase, the inhibition at 10 µM is over 90%.

`CC(C(=C(Cl)Cl)c1ccc(F)cc1Cl)N(C(=O)c1c(C(F)F)nn(C)c1F)C1CC1` (stereo not drawn) [Compound 207]: the pest or weed control at 100 µg/mL in the assay on Sphaerotheca fuliginea and in the assay on Erysiphe graminis was 80 to 100% throughout. Further, on succinate dehydrogenase, the inhibition at 10 µM is over 90%.

In the case of `CC(C(=C(Cl)Cl)c1cc(Cl)ccc1F)N(C(=O)c1c(C(F)F)nn(C)c1F)C1CC1` (stereo not drawn) [Compound 208], the pest or weed control at 100 µg/mL with Sphaerotheca fuliginea and with Erysiphe graminis was 80 to 100% each time. Moreover, on succinate dehydrogenase, the inhibition at 10 µM was over 90%.
